The mortality is the percentage killed.

In one assay the test system is Lucilia cuprina larvae. Description: whole plant or invertebrate. To be noted: in Equus caballus, read-out: activity (mortality in %).
In another assay the test system is Spodoptera litura. Description: Test against larva of Spodoptera litura (leaf dip). To be noted: 100 ppm of the active compound; third instar larvae; after 7 days. The class given is in vivo. The protocol: Solvent: Dimethylformamide 3 parts by weight
Emulsifier: Polyoxyethylene alkyl phenyl ether 1 part by weight
(§1) To prepare an appropriate formulation of an active compound, 1 part by weight of the active compound was mixed with the aforementioned amount of the solvent containing the aforementioned amount of the emulsifier, and the mixture was diluted to a prescribed concentration with water.
Leaves of sweet potate were soaked in the test agent diluted to a prescribed concentration with water, air-dried, and placed in a dish of 9 cm in diameter. Into this dish, 10 larvae of Spodoptera litura at the third instar were released and kept in a room at constant temperature of 25° C. After 2 and 4 days, more leaves of sweet potato were added, and the number of dead larvae after 7 days was counted to calculate the death rate. In this test, the test results are presented as an average of the results of two dishes per section.

In another assay the test system is Aulacophora femoralis. Kind of assay: Test against Aulacophora femoralis (leaf dip). The class given is in vivo. The conditions noted are these: 100 ppm of the active compound; second instar larvae; after 7 days. The protocol:
as §1
Leaves of cucumbers were soaked in a diluted aqueous solution of the prescribed concentration of an active compound prepared in the same manner as in the aforementioned tests, air-dried, and placed a plastic cup containing sterilized black soil. Into this cup, 5 larvae of Aulacophora femoralis at second instar were then released. After 7 days, the number of dead larvae was counted to calculate the death rate.

For assay [1], the system named is Musca domestica. Description: whole plant or invertebrate. To be noted: read-out: activity (mortality in %).
The test system of assay [2] is organic phosphorus agent- and carbamate agent-resistant Myzus persicae. Description: Test against organic phosphorus agent- and carbamate agent-resistant Myzus persicae (spray). The class given is in vivo. To be noted: 500 ppm of the active compound; adults on eggplant; 7 days at 28° C. The protocol:
as §1
About 30 to 50 adults of organic phosphorus agent- and carbamate agent-resistant Myzus persicae per seedling were inoculated to leaves of eggplants at two leaf stage cultured in a pot of 6 cm in diameter. One day after the inoculation, an ample amount of the diluted aqueous solution of the prescribed concentration of an active compound prepared in the same manner as in the aforementioned tests was sprayed with a spray gun. After the spraying, the pot was kept in a greenhouse at 28° C. for 7 days, the death rate was calculated. The test was duplicated.

In the next assay the test system is Ctenocephalides felis. Kind of assay: Test against Ctenocephalides felis (Example 5-1, blood feeding, dimethylformamide). The class given is in vivo. The conditions noted are these: 100 ppm of the active ingredient; adults fed on treated blood. The protocol: In order to prepare an appropriate formulation of an active compound, 10 mg of the active compound is dissolved in 0.5 mL of the aforementioned solvent, and the mixture is diluted to a prescribed concentration with blood from domestic animals.
About 10 to 15 adults of Ctenocephalides felis were kept in a flea-specific container. Another container containing the blood solution containing the compound prepared as described above was covered with a laboratory film [[…]™]. The blood containing container was turned upside down and placed on the flea-specific container. This system enables Ctenocephalides felis to suck the blood in the container. The blood solution was kept at 37° C. and the flea-specific container was kept at room temperature. After a certain period of time, the death rate of Ctenocephalides felis was calculated. For this test, the death rate of 100% means death of all Ctenocephalides felis, while the death rate of 0% means that all the fleas survived.

Assay [3] concerns Musca domestica. Description: Test against Musca domestica (Example 8-1, dimethylformamide). The class given is in vivo. To be noted: 100 ppm of the active ingredient; adults, sugar/compound soaked sponge. The protocol: In order to prepare an appropriate formulation of an active compound, 10 mg of the active compound was dissolved in 0.5 mL of the above solvent, and the resultant mixture was diluted to a prescribed concentration with water.
As a preparatory stage, a mixture of sugar and an aqueous solution of a compound prepared as above was absorbed into a sponge of a given size, and the sponge was place into a test container. 10 adult insects of Musca domestica were placed into the container, and the container was covered with a perforated cover.
After a certain period of time, the death rate of Musca domestica is calculated. In this test, the death rate of 100% means death of all Musca domestica, while the death rate of 0% means that all the flies survived.

Another assay deals with Lucillia cuprina. Description: Test against Lucillia cuprina (Example 7-1, dimethylformamide). The class given is in vivo. The conditions noted are these: 100 ppm of the active ingredient; larvae on minced horsemeat. The protocol:
(§2) In order to prepare an appropriate formulation of an active compound, 10 mg of the active compound was dissolved in 0.5 mL of the aforementioned solvent, and the mixture was diluted to a prescribed concentration with water.
About 20 to 30 larvae of Lucillia cuprina were placed into a test tube containing 1 cm^3 of minced horsemeat and 0.5 mL of an aqueous solution of a compound prepared as above.
After a certain period of time, the death rate of Lucillia cuprina was calculated. For this test, the death rate of 100% means death of all Lucillia cuprina, while the death rate of 0% means that all the flies survived.

For assay [4], the system named is Boophilus microplus. Description: Test against Boophilus microplus (injection, Example 6-1, dimethylformamide). The class given is in vivo. To be noted: dose of 20 ug/animal; injection into abdomen of fully fed adult females. Here is the method:
as §2
A solution of a compound formulated as above was injected into 5 fully fed adult female Boophilus microplus in their abdomen. These Boophilus microplus were transferred to a replica dish and kept in an incubating cabinet for a certain period of time.
After a certain period of time, the death rate of Boophilus microplus was calculated. In this test, the death rate of 100% means death of all Boophilus microplus, while the death rate of 0% means that all the mites survive.

The test system of assay [5] is Boophilus microplus. Description: whole plant or invertebrate. The conditions noted are these: Rhipicephalus microplus, 168 h, read-out: activity (mortality in %).
For a further assay, the system named is Amblyomma hebraeum. Kind of assay: Test against Amblyomma hebraeum (nymph dip). The class given is in vivo. The conditions noted are these: 1008 h, read-out: activity (mortality in %). Here is the method: Nymphs of the tick Amblyomma hebraeum are placed in perforated plastic beakers and immersed in aqueous compound solution for one minute. Ticks are transferred to a filter paper in a Petri dish and incubated in a climate chamber for 42 days.

The test system of the next assay is Ixodes ricinus. Kind of assay: Efficacy against ticks (Ixodes ricinus) on cats. The class given is in vivo. To be noted: 0.1 ml/kg (15 mg/kg) applied as Spot on, once on day 0, weekly reinfestation. Here is the method:
On study days −4 and/or −1 cats are sedated with a combination of the active ingredients ketaminhydrochloride and acepromazinmaleat. After all cats are sedated (approximately after 10-15 minutes) the cats are placed in single cages and 50 Ixodes ricinus ticks (25 female and 25 male) are released on the fur on the back of the cat. The cats are sleeping for about 1 h to 1.5 h and restrained from grooming and removing the ticks.
On study days −3 or 0 tick infestation rate is checked, while the cats are placed on an examination table. The area around the head, ears, eyes, neck and lateral and ventral part of the body and between the toes is checked intensively. The number of live attached engorged ticks is counted and recorded. Dead ticks are removed.
After tick counting on study day 0 treatment is performed. Cats of the control group are left untreated and serve as negative control group. The investigational veterinary product is applied as one single spot on the skin at the base of the skull. Treatment is performed only once on day 0. […]
On study day 1 and/or 2 tick counts are performed and the number of life or dead attached ticks counted and recorded. […]
In weekly intervals each cat is infested with 50 Ixodes ricinus ticks (25 female and 25 male) and tick counts are performed 1 and/or 2 days after reinfestation. Life and dead attached ticks are counted and recorded. […]

For assay [6], the system named is Ctenocephalides felis felis. Kind of assay: Efficacy against fleas Ctenocephalides felis felis on cats. The class given is in vivo. To be noted: 0.1 ml/kg (15 mg/kg) applied as Spot-on, once on day 0, weekly reinfestation. Here is the method: On study days −4 and −1 prior to treatment cats are infested with about 100 adult not fed fleas (Ctenocephalides felis felis). The fleas are released on the neck on the fur of the cats
On study day 0 the flea infestation rate is checked by counting the fleas on the animals. The number of live fleas is recorded.
After flea counting the cats are treated with the investigational product. Cats of the control group are left untreated and serve as negative control group. The investigational veterinary product is applied dermally as one spot at a dose volume of 0.1 to 0.2 ml/kg body weight. Treatment is performed only once on study day 0. Only healthy cats are treated and included in the study.
Flea counts are performed on study days 1 and/or 2 where the cats are combed and the number of live fleas recorded. The results are documented.
In weekly intervals the cats are reinfested with about 100 adult not fed fleas per cat. One and/or two days after reinfestation the cats are combed and the live fleas counted for each animal. The results are recorded.
Efficacy should be given over a three to four week period
For the calculation of the effectiveness the modified Abbott formula is used: […]

Consider `CC(=O)N(Cc1ccccn1)Cc1ccc(C2=NOC(c3cc(Cl)cc(Cl)c3)(C(F)(F)F)C2)cc1C#N` (stereo not shown) [1-61, N-{2-cyano-4-[5-(3,5-dichlorophenyl)-5-(trifluoromethyl)-4,5-dihydroisoxazol-3-yl]benzyl}-N-(pyridin-2-ylmethyl)acetamide], for which the mortality at 100 ppm with Lucilia cuprina larvae and in the assay on Musca domestica [1] was ≥ 80% throughout. The death rate (in the assay on Spodoptera litura; in the assay on Aulacophora femoralis; in assay [2]) was 100% each time.

With `CC(=O)N(Cc1ccccn1)Cc1ccc(C2=NOC(c3cc(Cl)cc(Cl)c3)(C(F)(F)F)C2)cc1C` (stereo not shown) [1-64], the death rate result in the assay on Ctenocephalides felis, in the assay with Musca domestica [3], in the assay on Lucillia cuprina and in the assay on Boophilus microplus [4] was “more than 80%” throughout.

As for `CC(=O)NCc1ccc(C2=NOC(c3cc(Cl)cc(Cl)c3)(C(F)(F)F)C2)cc1[N+](=O)[O-]` (stereo not shown) [1-60, N-{4-[5-(3,5-dichlorophenyl)-5-(trifluoromethyl)-4,5-dihydroisoxazol-3-yl]-2-nitrobenzyl}acetamide], the mortality at 100 ppm with Lucilia cuprina larvae, in the assay on Boophilus microplus [5] and with Musca domestica [1] was ≥ 80% throughout. The death rate in the assay on Spodoptera litura and with Aulacophora femoralis was 100% in each case.

For the compound `CC(=S)NCc1ccc(C2=NOC(c3cc(Cl)cc(Cl)c3)(C(F)(F)F)C2)cc1Br` (stereo not shown) [1-44, N-{2-bromo-4-[5-(3,5-dichlorophenyl)-5-(trifluoromethyl)-4,5-dihydroisoxazol-3-yl]benzyl}ethanethioamide], the mortality at 100 ppm with Lucilia cuprina larvae, in the assay with Amblyomma hebraeum, in the assay on Boophilus microplus [5] and in the assay with Musca domestica [1] was ≥ 80% each time. The death rate in the assay with Spodoptera litura and in the assay on Aulacophora femoralis was 100% throughout.

For the compound `CC(=O)NCc1ccc(C2=NOC(c3cc(Cl)c(Cl)c(Cl)c3)(C(F)(F)F)C2)cc1Br` (stereo not shown) [1-129], the “efficacy (modified Abbott formula)” value in the assay on Ixodes ricinus was > 90%; in [6], > 95%.

For `O=C(NCc1ccc(C2=NOC(c3cc(Cl)cc(Cl)c3)(C(F)(F)F)C2)cc1Br)c1ccccc1Cl` (stereo not shown) [1-31], the death rate (in the assay with Spodoptera litura; in the assay with Aulacophora femoralis; in assay [2]) was 100% each time.

For the origin of these results see patent US8372867B2, “Insecticidal aryl isoxazoline derivatives” (Bayer CropScience AG, priority 2007, dated 2013).
